Values of other authors as cited in patent publication US11452751B2, “Medication dispensing system” (priority 2015, dated 2022).

Assays:
[1] = system: estrogen receptor-positive and estrogen receptor-negative breast cancer cell lines; conditions: inducing apoptosis in a concentration-dependent manner
[2] = system: nontumorigenic mammary cells
[3] = system: cannabinoid receptors
[4] = target: T1, androgen receptor in the prostate gland (Homo sapiens, UniProt P10275)
T1 construct: host or cells: prostate gland
T1 sequence (P10275 1-920): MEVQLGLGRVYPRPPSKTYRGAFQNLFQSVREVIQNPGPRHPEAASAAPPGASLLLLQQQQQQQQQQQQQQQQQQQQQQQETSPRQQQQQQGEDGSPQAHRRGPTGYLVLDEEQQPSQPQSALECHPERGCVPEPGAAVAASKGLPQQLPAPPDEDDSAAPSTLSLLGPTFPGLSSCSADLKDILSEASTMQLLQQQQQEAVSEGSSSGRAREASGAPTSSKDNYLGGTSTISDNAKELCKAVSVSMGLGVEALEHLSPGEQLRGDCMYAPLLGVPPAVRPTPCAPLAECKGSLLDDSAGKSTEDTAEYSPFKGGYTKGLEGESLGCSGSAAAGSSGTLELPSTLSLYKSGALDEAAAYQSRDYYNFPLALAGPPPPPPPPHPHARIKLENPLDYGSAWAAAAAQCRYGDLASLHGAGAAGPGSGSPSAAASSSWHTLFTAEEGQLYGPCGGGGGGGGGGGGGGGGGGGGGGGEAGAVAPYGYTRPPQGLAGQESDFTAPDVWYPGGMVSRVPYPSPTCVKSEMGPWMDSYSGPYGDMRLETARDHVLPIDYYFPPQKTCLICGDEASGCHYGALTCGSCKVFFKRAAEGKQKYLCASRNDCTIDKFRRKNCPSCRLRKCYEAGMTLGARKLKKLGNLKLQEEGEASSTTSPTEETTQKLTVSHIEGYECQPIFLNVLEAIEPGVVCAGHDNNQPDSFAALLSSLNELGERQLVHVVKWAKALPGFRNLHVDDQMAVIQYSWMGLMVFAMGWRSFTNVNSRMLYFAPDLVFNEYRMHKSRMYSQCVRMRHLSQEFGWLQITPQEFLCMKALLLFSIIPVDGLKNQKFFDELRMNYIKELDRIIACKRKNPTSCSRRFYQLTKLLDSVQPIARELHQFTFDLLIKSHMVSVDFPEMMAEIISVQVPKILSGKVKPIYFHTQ

[5] = system: prostate cell line, PC-3; conditions: Ruiz et al. 1999
[6] = target: CB1 receptor (Homo sapiens, UniProt P21554)
[7] = not given; remark: listed apart in the source

Chain of CB1 receptor (P21554 whole entry): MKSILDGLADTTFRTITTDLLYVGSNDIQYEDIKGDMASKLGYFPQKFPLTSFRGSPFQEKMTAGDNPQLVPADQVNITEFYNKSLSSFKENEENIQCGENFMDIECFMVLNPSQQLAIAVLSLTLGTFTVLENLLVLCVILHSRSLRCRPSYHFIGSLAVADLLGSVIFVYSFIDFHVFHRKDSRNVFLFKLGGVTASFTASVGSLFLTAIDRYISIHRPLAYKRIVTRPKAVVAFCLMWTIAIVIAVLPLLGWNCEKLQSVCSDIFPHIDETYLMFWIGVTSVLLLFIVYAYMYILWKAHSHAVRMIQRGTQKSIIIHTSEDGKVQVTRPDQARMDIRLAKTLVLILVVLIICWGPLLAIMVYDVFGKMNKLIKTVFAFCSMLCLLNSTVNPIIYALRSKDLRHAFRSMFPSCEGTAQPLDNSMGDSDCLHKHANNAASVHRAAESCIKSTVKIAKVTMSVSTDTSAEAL

C=C(C)[C@@H]1CCC(C)=C[C@H]1c1c(O)cc(CCCCC)cc1O [CBD, Cannabidiol]
survival of breast cancer cell lines [1]: inhibited the survival
effect on nontumorigenic mammary cells [2]: little effect
affinity to cannabinoid receptors [3]: low affinity

CCCCCc1cc(O)c2c(c1)OC(C)(C)[C@@H]1CCC(C)=C[C@@H]21 [THC, Tetrahydrocannabinol]
pain sensitivity (cold-pressor test after administration, dronabinol oral capsules 10 mg or 20 mg): decreased pain sensitivity
duration of effects (compared with smoked marijuana): lasted longer than smoked marijuana
time after administration at which pain reduction effects were felt (on the average, cold-pressor test): 180 min
specific binding of dihydroxytestosterone to the androgen receptor [4]: inhibits specific binding
apoptosis [5]: causes apoptosis

CCCc1cc(O)c2c(c1)OC(C)(C)[C@@H]1CCC(C)=C[C@@H]21 [THCV, Tetrahydrocannabivarin]
mode of action at CB1 receptor [6]: CB1 receptor antagonist

vitamin E
reduction in breast cancer incidence ([7]; pre-menopausal women with a family history of breast cancer, highest quantity of vitamin E consumed): 43%
risk reduction of breast cancer ([7]; women without a family history of breast cancer): 16%
